Values quoted from earlier work as cited in patent publication US20260242330A1, “USE OF AN AMANTADINE MONONITRATE COMPOUND IN MANUFACTURE OF A MEDICAMENT FOR THE PREVENTION AND TREATMENT OF HYPERTENSION” (GUANGZHOU MAGPIE PHARMACEUTICALS CO., LTD., priority 2022, published 2026).

Test system: 24-hour blood pressure in primary hypertension
Details: cited from earlier work

## Cc1cccc(Nc2ccncc2S(=O)(=O)NC(=O)NC(C)C)c1 [tolasemide]
  average 24-hour dynamic diastolic pressure decrease: 2.42 mmHg
  average 24-hour dynamic systolic pressure decrease: 5.92 mmHg

## CCOC(=O)[C@H](CCc1ccccc1)N[C@H]1CCc2ccccc2N(CC(=O)O)C1=O [benazepril]
  average 24-hour dynamic diastolic pressure decrease: 3.33 mmHg
  average 24-hour dynamic systolic pressure decrease: 6.74 mmHg

## COCCc1ccc(OCC(O)CNC(C)C)cc1 (centres unmarked) [metoprolol]
  average 24-hour dynamic diastolic pressure decrease: 4.6 mmHg
  average 24-hour dynamic systolic pressure decrease: 6.66 mmHg

## CCCCC(=O)N(Cc1ccc(-c2ccccc2-c2nnn[nH]2)cc1)[C@H](C(=O)O)C(C)C [valsartan]
  average 24-hour dynamic diastolic pressure decrease: 6.04 mmHg
  average 24-hour dynamic systolic pressure decrease: 8.08 mmHg
